# According to patent US10881110B2, “Herbicidal compositions comprising isoxazolo[5,4-b]pyridines” (BASF SE, priority 2014, dated 2021):
# Key:
# Assay in all cases: greenhouse post-emergence herbicidal test
# APESV = type: in vivo, Apera spica-venti; design: key to herbicidal activity against APESV found: rating on a scale from 0 to 100; settings: post emergence
# Description: (§1) The culture containers used were plastic pots containing medium loamy sand with approximately 4.6% of humus and 69.9% sand as substrate. The seeds of the test plants were sown separately for each species.
# (§2) For the post-emergence treatment, the test plants were grown to a plant height of from 1 to 15 cm, depending on the plant habit, and only then treated with the active compounds which had been suspended or emulsified in water. To this end, the test plants were either sown directly, and grown in the same containers, or they were first grown separately as seedlings and transplanted into the test containers a few days prior to treatment.
# (§3) Depending on the species, the plants were kept at 10-25° C. and 20-35° C., respectively.
# (§4) The test period extended over 1 to 3 weeks. During this time, the plants were tended and their response to the individual treatments was evaluated 20 days after treatment except mentioned otherwise.
# (§5) Evaluation was carried out using a scale from 0 to 100. 100 means no emergence of the plants, or complete destruction of at least the above-ground parts, and 0 means no damage or normal course of growth.
# (§6) The respective stated components A and B, and, if appropriate, C, were formulated as a 10% by weight strength emulsion concentrate and, with addition of the amount of solvent system, introduced into the spray liquor used for applying the active compound. In the examples, the solvent used was water.
# (§7) In the examples below, using the method of S. R. Colby (1967) “Calculating synergistic and antagonistic responses of herbicide combinations”, Weeds 15, p. 22 ff., the value E, which is expected if the activity of the individual active compounds is only additive, was calculated. E=X+Y−(X·Y/100)
# GERDI = type: in vivo, Geranium dissectum; design: key to herbicidal activity against GERDI found: rating on a scale from 0 to 100; settings: post emergence
# Description: as §1, §2, §3, §4, §5, §6, §7
# ABUTH = type: in vivo, Abutilon theophrast; design: key to herbicidal activity against ABUTH found: rating on a scale from 0 to 100; settings: post emergence
# Description: as §1, §2, §3, §4, §5, §6, §7
# ALOMY = type: in vivo, Alopecurus myosuroides; design: key to herbicidal activity against ALOMY found: rating on a scale from 0 to 100; settings: post emergence
# Description: as §1, §2, §3, §4, §5, §6, §7
# VIOAR = type: in vivo, Viola arvensis; design: key to herbicidal activity against VIOAR found / herbicidal activity against VIOLA found: rating on a scale from 0 to 100; settings: post emergence
# Description: as §1, §2, §3, §4, §5, §6, §7
# ERICA = type: in vivo, Conyza canadensis; design: key to herbicidal activity against ERICA found: rating on a scale from 0 to 100; settings: post emergence
# Description: as §1, §2, §3, §4, §5, §6, §7
# IPOHE = type: in vivo, Ipomoea hederacea; design: key to herbicidal activity against IPOHE found: rating on a scale from 0 to 100; settings: post emergence; for herbicidal activity against IPOHE found: g/ha a.i.: I.1 31.25
# Description: as §1, §2, §3, §4, §5, §6, §7
# GALAP = type: in vivo, Galium aparine; design: key to herbicidal activity against GALAP found: rating on a scale from 0 to 100; settings: post emergence
# Description: as §1, §2, §3, §4, §5, §6, §7
# KCHSC = type: in vivo, Kochia scoparia; design: key to herbicidal activity against KCHSC found: rating on a scale from 0 to 100; settings: post emergence
# Description: as §1, §2, §3, §4, §5, §6, §7
# POLCO = type: in vivo, Polygonum convolvulus; settings: post emergence
# Description: as §1, §2, §3, §4, §5, §6, §7
# MATCH = type: in vivo, Matricaria recutita; design: key to herbicidal activity against MATCH found: rating on a scale from 0 to 100; settings: post emergence
# Description: as §1, §2, §3, §4, §5, §6, §7
# PAPRH = type: in vivo, Papaver rhoeas; design: key: rating on a scale from 0 to 100
# Description: as §1, §2, §3, §4, §5, §6, §7
# CONAR = type: in vivo, Convolvulus arvensis; design: key: rating on a scale from 0 to 100; settings: application rate a.i.: I.1 62.5 g/ha, B.30 (imazamox) 3.75 g/ha, alone or as mixture (composition 1.030)
# Description: as §1, §2, §3, §4, §5, §6, §7
# [1] = g/ha a.i.: I.1 62.5, B.52 2.5, mixture 62.5+2.5
# [2] = g/ha a.i.: I.1 125, B.52 2.5, mixture 125+2.5
# [3] = g/ha a.i.: I.1 31.25, B.52 2.5, mixture 31.25+2.5
# [4] = g/ha a.i.: I.1 31.25, B.52 5, mixture 31.25+5
# [5] = g/ha a.i.: I.1 62.5, B.20 4, mixture 62.5+4
# [6] = application rate a.i.: I.1 62.5 g/ha, B.30 (imazamox) 3.75 g/ha, alone or as mixture (composition 1.030)
# [7] = g/ha a.i.: I.1 31.25, B.24 1, mixture 31.25+1
# [8] = g/ha a.i.: I.1 31.25, B.24 2, mixture 31.25+2
# [9] = g/ha a.i.: I.1 125, B.24 2, mixture 125+2
smiles,measurement,setting,value
"COc1cnc(OC)n2nc(NS(=O)(=O)c3c(OCC(F)F)cccc3C(F)(F)F)nc12 [B.52, penoxsulam]",herbicidal activity against APESV found,APESV; [1],55
same,herbicidal activity against APESV found,APESV; [2],55
same,herbicidal activity against GERDI found,GERDI; [3],80
same,herbicidal activity against GERDI found,GERDI; [1],80
same,herbicidal activity against GERDI found,GERDI; [2],80
same,herbicidal activity against ABUTH found,ABUTH; [3],85
same,herbicidal activity against ABUTH found,ABUTH; [4],90
same,herbicidal activity against ABUTH found,ABUTH; [1],85
same,herbicidal activity against ALOMY found,ALOMY; [3],55
same,herbicidal activity against ALOMY found,ALOMY; [1],55
same,herbicidal activity against ALOMY found,ALOMY; [2],55
same,herbicidal activity against VIOAR found,VIOAR; [1],0
same,herbicidal activity against VIOAR found,VIOAR; [2],0
same,herbicidal activity against VIOAR found,"VIOAR; g/ha a.i.: I.1 125, B.52 5, mixture 125+5",60
same,herbicidal activity against ERICA found,ERICA; [3],90
same,herbicidal activity against ERICA found,ERICA; [4],90
same,herbicidal activity against ERICA found,ERICA; [1],90
same,herbicidal activity against ERICA found,"ERICA; g/ha a.i.: I.1 62.5, B.52 5, mixture 62.5+5",90
"COc1cc(OC)nc(Oc2cccc(Oc3nc(OC)cc(OC)n3)c2C(=O)O)n1 [B.20, bispyribac-sodium]",herbicidal activity against APESV found,APESV; [5],60
same,herbicidal activity against ABUTH found,"ABUTH; g/ha a.i.: I.1 31.25, B.20 2, mixture 31.25+2",35
same,herbicidal activity against ABUTH found,"ABUTH; g/ha a.i.: I.1 31.25, B.20 4, mixture 31.25+4",65
same,herbicidal activity against ALOMY found,ALOMY; [5],55
same,herbicidal activity against ALOMY found,"ALOMY; g/ha a.i.: I.1 125, B.20 2, mixture 125+2",30
same,herbicidal activity against ALOMY found,"ALOMY; g/ha a.i.: I.1 125, B.20 4, mixture 125+4",55
same,herbicidal activity against IPOHE found,"IPOHE; B.20 2, mixture 31.25+2",30
CC(C)=NOCCOC(=O)[C@@H](C)Oc1ccc(Oc2cnc3cc(Cl)ccc3n2)cc1 [propaquizafop],herbicidal activity against APESV found,APESV; applied alone at 5 g/ha a.i.,65
same,herbicidal activity against ABUTH found,ABUTH; applied alone at 10 g/ha a.i.,30
same,herbicidal activity against GALAP found,GALAP; applied alone at 5 g/ha a.i.,0
same,herbicidal activity against GALAP found,GALAP; applied alone at 10 g/ha a.i.,10
same,herbicidal activity against ALOMY found,ALOMY; applied alone at 5 g/ha a.i.,55
same,herbicidal activity against ALOMY found,ALOMY; applied alone at 10 g/ha a.i.,65
same,herbicidal activity against KCHSC found,KCHSC; applied alone at 5 g/ha a.i.,0
same,herbicidal activity against KCHSC found,KCHSC; applied alone at 10 g/ha a.i.,10
same,herbicidal activity against POLCO found,POLCO; applied alone at 5 g/ha a.i.,0
same,herbicidal activity against POLCO found,POLCO; applied alone at 10 g/ha a.i.,0
same,herbicidal activity against ERICA found,ERICA; applied alone at 5 g/ha a.i.,0
CCC/C(=N\OCC)C1=C(O)CC(C2CCCSC2)CC1=O (stereo not shown) [cycloxidim],herbicidal activity against APESV found,"APESV; single active, 5 g/ha a.i.",30
same,herbicidal activity against GERDI found,"GERDI; single active, 2.5 g/ha a.i.",0
same,herbicidal activity against GERDI found,"GERDI; single active, 5 g/ha a.i.",20
same,herbicidal activity against GALAP found,"GALAP; single active, 5 g/ha a.i.",25
same,herbicidal activity against VIOAR found,"VIOAR; single active, 2.5 g/ha a.i.",0
same,herbicidal activity against MATCH found,"MATCH; single active, 5 g/ha a.i.",65
"CC1(C)CON(Cc2ccccc2Cl)C1=O [B.97, clomazone]",pest or weed control at 375 g/ha,"ALOMY; Alopecurus myosuroides, post-emergence, 480 h, B.97 alone 375 g/ha a.i., read-out: herbicidal activity against ALOMY found",45%
same,pest or weed control at 750 g/ha,"ALOMY; Alopecurus myosuroides, post-emergence, 480 h, B.97 alone 750 g/ha a.i., read-out: herbicidal activity against ALOMY found",60%
same,pest or weed control at 375 g/ha,"VIOAR; Viola arvensis, post-emergence, B.97 alone 375 g/ha a.i., read-out: herbicidal activity against VIOAR found",85%
same,pest or weed control at 750 g/ha,"IPOHE; Ipomoea hederacea, post-emergence, 480 h, B.97 alone 750 g/ha a.i., read-out: herbicidal activity against IPOHE found",45%
same,pest or weed control at 375 g/ha,"ERICA; Erigeron canadensis, post-emergence, 480 h, B.97 alone 375 g/ha a.i., read-out: herbicidal activity against ERICA found",50%
same,pest or weed control at 750 g/ha,"ERICA; Erigeron canadensis, post-emergence, 480 h, B.97 alone 750 g/ha a.i., read-out: herbicidal activity against ERICA found",65%
CCOC(=O)[C@@H](C)Oc1ccc(Oc2cnc3cc(Cl)ccc3n2)cc1 [quizalofop-p-ethyl],herbicidal activity against PAPRH found,PAPRH; applied alone at 15 g/ha a.i.,50
same,herbicidal activity against ABUTH found,ABUTH; applied alone at 7.5 g/ha a.i.,15
same,herbicidal activity against ABUTH found,ABUTH; applied alone at 15 g/ha a.i.,25
same,herbicidal activity against VIOAR found,VIOAR; applied alone at 7.5 g/ha a.i.,0
same,herbicidal activity against VIOAR found,VIOAR; applied alone at 15 g/ha a.i.,0
same,herbicidal activity against MATCH found,MATCH; applied alone at 15 g/ha a.i.,0
same,herbicidal activity against ERICA found,ERICA; applied alone at 7.5 g/ha a.i.,0
same,herbicidal activity against ERICA found,ERICA; applied alone at 15 g/ha a.i.,20
"CCSC(C)CC1CC(=O)C(/C(CC)=N/OC/C=C/Cl)=C(O)C1 (stereo not shown) [B.1, clethodim]",herbicidal activity against APESV found,APESV; applied alone at 6 g/ha a.i.,75
same,herbicidal activity against ABUTH found,ABUTH; applied alone at 6 g/ha a.i.,0
same,herbicidal activity against ABUTH found,ABUTH; applied alone at 12 g/ha a.i.,25
same,herbicidal activity against GALAP found,GALAP; applied alone at 12 g/ha a.i.,0
same,herbicidal activity against POLCO found,POLCO; applied alone at 6 g/ha a.i.,0
same,herbicidal activity against ERICA found,ERICA; applied alone at 12 g/ha a.i.,0
"COCc1cnc(C2=NC(C)(C(C)C)C(=O)N2)c(C(=O)O)c1 (stereo not shown) [B.30, imazamox]",herbicidal activity against GERDI found,GERDI; [6],90
same,herbicidal activity against VIOAR found,VIOAR; [6],45
same,herbicidal activity against CONAR found,CONAR,85
"COc1cc(OC)nc(NC(=O)NS(=O)(=O)Nc2ccccc2C(=O)C2CC2)n1 [B.24, cyclosulfamuron]",herbicidal activity against APESV found,APESV; [7],0
same,herbicidal activity against ABUTH found,ABUTH; [8],85
same,herbicidal activity against ALOMY found,"ALOMY; g/ha a.i.: I.1 125, B.24 1, mixture 125+1",25
same,herbicidal activity against ALOMY found,ALOMY; [9],35
same,herbicidal activity against KCHSC found,KCHSC; [7],45
same,herbicidal activity against KCHSC found,KCHSC; [8],45
same,herbicidal activity against IPOHE found,"IPOHE; B.24 1, mixture 31.25+1",75
same,herbicidal activity against MATCH found,MATCH; [8],65
same,herbicidal activity against MATCH found,MATCH; [9],65
"COc1ncc(F)c2nc(S(=O)(=O)Nc3c(F)cccc3F)nn12 [B.26, florasulam]",herbicidal activity against PAPRH found,PAPRH; 2 g/ha a.i.,98
same,herbicidal activity against POLCO found,POLCO; 2 g/ha a.i.,85
